ChEMBL document CHEMBL5505958, “Optimization of sequence and chiral content enhances therapeutic potential of tilapia piscidin peptides” (Eur J Med Chem, 2024)
Values after ≈ are worked out from the molar mass of the structure shown. Active and inactive are the calls of the source. No cut-off for these calls is given here.

How the values were obtained:
Klebsiella pneumoniae [1] = assay: Bactericidal activity against Klebsiella pneumoniae BAA 2473 assessed as inhibition of bacterial growth in presence of 10 microg/ml of proteinase K (reference value: 1.56 to 3.13 microM); assay type: functional
Klebsiella pneumoniae [2] = assay: Antibacterial activity against Klebsiella pneumoniae BAA 2473 assessed as inhibition of bacterial growth incubated for 16 to 20 hrs; assay type: functional; settings: time 16-20 hrs
Klebsiella pneumoniae [3] = assay: Antibacterial activity against Klebsiella pneumoniae BAA 2473 assessed as inhibition of bacterial growth in presence of 10 microg/ml of pepsin (reference value: 1.56 to 3.13 microM); assay type: functional
Cell membrane [4] = assay: Induction of cell membrane depolarization in Klebsiella pneumoniae BAA 2473 assessed as increase in fluorescence intensity at 1 times MIC incubated for 40 mins by DiBAC4(3) fluorescent dye based assay; assay type: cell membranes
Vibrio vulnificus [5] = assay: Bactericidal activity against Vibrio vulnificus 204 assessed as inhibition of bacterial growth incubated for 16 to 20 hrs; assay type: functional; settings: time 16-20 hrs
Salmonella enterica [6] = assay: Bactericidal activity against Salmonella enterica 15455 assessed as inhibition of bacterial growth incubated for 16 to 20 hrs; assay type: functional; settings: time 16-20 hrs
Klebsiella pneumoniae [7] = assay: Antibacterial activity against Klebsiella pneumoniae BAA 2473 assessed as inhibition of bacterial growth in presence of 0.1 microg/ml of pepsin (reference value: 1.56 to 3.13 microM); assay type: functional
Klebsiella pneumoniae [8] = assay: Bactericidal activity against Klebsiella pneumoniae BAA 2473 assessed as inhibition of bacterial growth in presence of 1 microg/ml of proteinase K (reference value: 1.56 to 3.13 microM); assay type: functional
Cell membrane [9] = assay: Induction of outer cell membrane permeabilization in Klebsiella pneumoniae BAA 2473 assessed as increase in fluorescence intensity by NPN uptake assay; assay type: cell membranes
Enterococcus faecium = assay: Bactericidal activity against Enterococcus faecium 10067 assessed as inhibition of bacterial growth incubated for 16 to 20 hrs; assay type: functional; settings: time 16-20 hrs
Klebsiella pneumoniae [10] = assay: Antibacterial activity against Klebsiella pneumoniae BAA 2473 assessed as inhibition of bacterial growth in presence of 0.1 microg/ml of chymotrypsin (reference value: 1.56 to 3.13 microM); assay type: functional
Salmonella enterica [11] = assay: Bactericidal activity against Salmonella enterica 15455 assessed as inhibition of bacterial growth incubated for 16 to 20 hrs in presence of human serum; assay type: functional; settings: time 16-20 hrs
Klebsiella pneumoniae [12] = assay: Bactericidal activity against Klebsiella pneumoniae BAA 2473 assessed as inhibition of bacterial growth in presence of 10 microg/ml of pepsin (reference value: 1.56 to 3.13 microM); assay type: functional
Klebsiella aerogenes = assay: Antibacterial activity against Enterobacter aerogenes 15630 assessed as inhibition of bacterial growth incubated for 16 to 20 hrs; assay type: functional; settings: time 16-20 hrs
Vibrio vulnificus [13] = assay: Bactericidal activity against Vibrio vulnificus 204 assessed as inhibition of bacterial growth incubated for 16 to 20 hrs in presence of human serum; assay type: functional; settings: time 16-20 hrs
Klebsiella pneumoniae [14] = assay: Bactericidal activity against Klebsiella pneumoniae BAA 2473 assessed as inhibition of bacterial growth in presence of 0.1 microg/ml of proteinase K (reference value: 1.56 to 3.13 microM); assay type: functional
Klebsiella pneumoniae [15] = assay: Bactericidal activity against Klebsiella pneumoniae BAA 2473 assessed as inhibition of bacterial growth in presence of 0.1 microg/ml of pepsin (reference value: 1.56 to 3.13 microM); assay type: functional
Yersinia enterocolitica [16] = assay: Bactericidal activity against Yersinia enterocolitica 13999 assessed as inhibition of bacterial growth incubated for 16 to 20 hrs; assay type: functional; settings: time 16-20 hrs
Klebsiella pneumoniae [17] = assay: Antibacterial activity against Klebsiella pneumoniae BAA 2473 assessed as inhibition of bacterial growth in presence of 0.1 microg/ml of proteinase K (reference value: 1.56 to 3.13 microM); assay type: functional
Klebsiella pneumoniae [18] = assay: Antibacterial activity against Klebsiella pneumoniae BAA 2473 assessed as inhibition of bacterial growth in presence of 1 microg/ml of proteinase K (reference value: 1.56 to 3.13 microM); assay type: functional
Klebsiella pneumoniae [19] = assay: Bactericidal activity against Klebsiella pneumoniae BAA 2473 assessed as inhibition of bacterial growth in presence of 10 microg/ml of trypsin (reference value: 1.56 to 3.13 microM); assay type: functional
Klebsiella pneumoniae [20] = assay: Antibacterial activity against Klebsiella pneumoniae BAA 2473 assessed as inhibition of bacterial growth in presence of 1 microg/ml of chymotrypsin (reference value: 1.56 to 3.13 microM); assay type: functional
Enterococcus faecalis = assay: Bactericidal activity against Enterococcus faecalis 10066 assessed as inhibition of bacterial growth incubated for 16 to 20 hrs; assay type: functional; settings: time 16-20 hrs
Salmonella enterica [21] = assay: Antibacterial activity against Salmonella enterica 15455 assessed as inhibition of bacterial growth incubated for 16 to 20 hrs; assay type: functional; settings: time 16-20 hrs
Rhizopus arrhizus = assay: Fungicidal activity against Rhizopus oryzae 34550 assessed as inhibition of fungal growth incubated for 16 to 20 hrs in presence of human serum; assay type: functional; settings: time 16-20 hrs
Klebsiella pneumoniae [22] = assay: Bactericidal activity against Klebsiella pneumoniae 10692 assessed as inhibition of bacterial growth incubated for 16 to 20 hrs; assay type: functional; settings: time 16-20 hrs
Yersinia enterocolitica [23] = assay: Antibacterial activity against Yersinia enterocolitica 13999 assessed as inhibition of bacterial growth incubated for 16 to 20 hrs; assay type: functional; settings: time 16-20 hrs
Salmonella typhimurium [24] = assay: Antibacterial activity against Salmonella typhimurium DT104 assessed as inhibition of bacterial growth incubated for 16 to 20 hrs in presence of human serum; assay type: functional, Salmonella enterica subsp. enterica serovar Typhimurium; settings: Salmonella enterica, time 16-20 hrs
Klebsiella pneumoniae [25] = assay: Bactericidal activity against Klebsiella pneumoniae BAA 2473 assessed as inhibition of bacterial growth in presence of 1 microg/ml of pepsin (reference value: 1.56 to 3.13 microM); assay type: functional
Klebsiella pneumoniae [26] = assay: Bactericidal activity against Klebsiella pneumoniae BAA 2473 assessed as inhibition of bacterial growth in presence of 1 microg/ml of chymotrypsin (reference value: 1.56 to 3.13 microM); assay type: functional
Vibrio vulnificus [27] = assay: Antibacterial activity against Vibrio vulnificus 204 assessed as inhibition of bacterial growth incubated for 16 to 20 hrs in presence of human serum; assay type: functional; settings: time 16-20 hrs
Klebsiella oxytoca [28] = assay: Bactericidal activity against Klebsiella oxytoca 13985 assessed as inhibition of bacterial growth incubated for 16 to 20 hrs in presence of human serum; assay type: functional; settings: time 16-20 hrs
[29] = tested on: Staphylococcus haemolyticus; assay: Bactericidal activity against Staphylococcus haemolyticus 15237 assessed as inhibition of bacterial growth incubated for 16 to 20 hrs; assay type: functional; settings: time 16-20 hrs
Klebsiella pneumoniae [30] = assay: Antibacterial activity against Klebsiella pneumoniae 10692 assessed as inhibition of bacterial growth incubated for 16 to 20 hrs; assay type: functional; settings: time 16-20 hrs
Acinetobacter baumannii = assay: Antibacterial activity against Acinetobacter baumannii 10591 assessed as inhibition of bacterial growth incubated for 16 to 20 hrs in presence of human serum; assay type: functional; settings: time 16-20 hrs
Klebsiella pneumoniae [31] = assay: Antibacterial activity against Klebsiella pneumoniae BAA 2473 assessed as inhibition of bacterial growth in presence of 1 microg/ml of trypsin (reference value: 1.56 to 3.13 microM); assay type: functional
Salmonella typhimurium [32] = assay: Antibacterial activity against Salmonella typhimurium DT104 assessed as inhibition of bacterial growth incubated for 16 to 20 hrs; assay type: functional, Salmonella enterica subsp. enterica serovar Typhimurium; settings: Salmonella enterica, time 16-20 hrs
Klebsiella oxytoca [33] = assay: Antibacterial activity against Klebsiella oxytoca 13985 assessed as inhibition of bacterial growth incubated for 16 to 20 hrs in presence of human serum; assay type: functional; settings: time 16-20 hrs
Salmonella typhimurium [34] = assay: Bactericidal activity against Salmonella typhimurium DT104 assessed as inhibition of bacterial growth incubated for 16 to 20 hrs in presence of human serum; assay type: functional, Salmonella enterica subsp. enterica serovar Typhimurium; settings: Salmonella enterica, time 16-20 hrs

| Molecule | MBC (Klebsiella pneumoniae [1]) | MIC (Klebsiella pneumoniae [2]) | MIC (Klebsiella pneumoniae [3]) | Activity (Cell membrane [4]) | MBC (Vibrio vulnificus [5]) | MBC (Salmonella enterica [6]) | MIC (Klebsiella pneumoniae [7]) | MBC (Klebsiella pneumoniae [8]) | Activity (Cell membrane [9]) | MBC (Enterococcus faecium) | MIC (Klebsiella pneumoniae [10]) | MBC (Salmonella enterica [11]) | MBC (Klebsiella pneumoniae [12]) | MIC (Klebsiella aerogenes) | MBC (Vibrio vulnificus [13]) | MBC (Klebsiella pneumoniae [14]) | MBC (Klebsiella pneumoniae [15]) | MBC (Yersinia enterocolitica [16]) | MIC (Klebsiella pneumoniae [17]) | MIC (Klebsiella pneumoniae [18]) | also measured |
| --- | --- | --- | --- | --- | --- | --- | --- | --- | --- | --- | --- | --- | --- | --- | --- | --- | --- | --- | --- | --- | --- |
| H-FIHHIIGGLFSAGKAIHRLIRRRRR-OH | > 100 µM | 1.56 µM | > 100 µM | Active | 3.13 µM | < 1.56 µM | 1.56 µM | > 100 µM | Active | 0.78 µM | 1.56 µM | 100 µM | > 100 µM | 0.78 µM | > 100 µM | 1.56 µM | 3.13 µM | 3.13 µM | 1.56 µM | > 100 µM | MBC (Klebsiella pneumoniae [19]): > 100 µM; MIC (Klebsiella pneumoniae [20]): > 100 µM; MBC (Enterococcus faecalis): 3.13 µM; MIC (Salmonella enterica [21]): 3.13 µM; MBC (Rhizopus arrhizus): 100 µM; MBC (Klebsiella pneumoniae [22]): 0.78 µM; MIC (Yersinia enterocolitica [23]): 3.13 µM; MIC (Salmonella typhimurium [24]): > 100 µM; MBC (Klebsiella pneumoniae [25]): > 100 µM; MBC (Klebsiella pneumoniae [26]): > 100 µM; MIC (Vibrio vulnificus [27]): > 100 µM; MBC (Klebsiella oxytoca [28]): > 100 µM; MBC [29]: 1.56 µM; MIC (Klebsiella pneumoniae [30]): 0.78 µM; MIC (Acinetobacter baumannii): 100 µM; MIC (Klebsiella pneumoniae [31]): > 100 µM; MIC (Salmonella typhimurium [32]): 6.25 µM; MIC (Klebsiella oxytoca [33]): > 100 µM; MBC (Salmonella typhimurium [34]): > 100 µM |
| CC(C)C[C@H](NC(=O)[C@H](CCCCN)NC(=O)[C@@H](CCCCN)NC(=O)[C@H](CC(C)C)NC(=O)[C@@H](N)Cc1ccccc1)C(=O)N[C@H](CC(C)C)C(=O)N[C@@H](CCCCN)C(=O)N[C@@H](C)C(=O)N[C@H](CC(C)C)C(=O)N[C@@H](Cc1ccccc1)C(=O)N[C@@H](CO)C(=O)N[C@H](C)C(=O)N1CCC[C@H]1C(=O)N[C@@H](CCCCN)C(=O)N[C@H](C)C(=O)N[C@@H](CC(C)C)C(=O)N[C@@H](CCCCN)C(=O)N[C@H](CCCNC(=N)N)C(=O)N[C@@H](CC(C)C)C(=O)N[C@@H](CC(C)C)C(=O)N[C@H](CCCNC(=N)N)C(=O)N[C@@H](CCCNC(=N)N)C(=O)N[C@@H](CCCNC(=N)N)C(=O)N[C@H](CCCNC(=N)N)C(=O)N[C@@H](CCCNC(=N)N)C(=O)O | 0.78 µM | 0.78 µM (≈ 2.4 µg/mL) | 0.78 µM | Active | 12.5 µM (≈ 38.5 µg/mL) | 6.25 µM (≈ 19.2 µg/mL) | 0.78 µM | 1.56 µM | Active | 12.5 µM (≈ 38.5 µg/mL) | 0.78 µM | 0.78 µM | 0.78 µM | 1.56 µM (≈ 4.8 µg/mL) | 12.5 µM | 0.78 µM | 0.78 µM | 3.13 µM (≈ 9.64 µg/mL) | 0.78 µM | 0.78 µM | MBC (Klebsiella pneumoniae [19]): 1.56 µM; MIC (Klebsiella pneumoniae [20]): 0.78 µM; MBC (Enterococcus faecalis): > 12.5 µM; MIC (Salmonella enterica [21]): 3.13 µM (≈ 9.64 µg/mL); MBC (Rhizopus arrhizus): 100 µM; MBC (Klebsiella pneumoniae [22]): 3.13 µM (≈ 9.64 µg/mL); MIC (Yersinia enterocolitica [23]): 3.13 µM (≈ 9.64 µg/mL); MIC (Salmonella typhimurium [24]): 3.13 µM; MBC (Klebsiella pneumoniae [25]): 0.78 µM; MBC (Klebsiella pneumoniae [26]): 0.78 µM; MIC (Vibrio vulnificus [27]): 12.5 µM; MBC (Klebsiella oxytoca [28]): 3.13 µM; MBC [29]: 1.56 µM (≈ 4.8 µg/mL); MIC (Klebsiella pneumoniae [30]): 3.13 µM (≈ 9.64 µg/mL); MIC (Acinetobacter baumannii): 3.13 µM; MIC (Klebsiella pneumoniae [31]): 1.56 µM; MIC (Salmonella typhimurium [32]): 6.25 µM (≈ 19.2 µg/mL); MIC (Klebsiella oxytoca [33]): 3.13 µM; MBC (Salmonella typhimurium [34]): 3.13 µM |
